ChEMBL document CHEMBL4507291 (2021)

What was measured:
[1] = molecular target: Phosphodiesterase 3 (Homo sapiens) (UniProt Q14432+Q13370); test: Inhibition of Phosphodiesterase PDE3 at compound concentration of 10.0 uM in the Eurofins-Panlabs enzyme assay (Eurofins_assay_152000); assay type: protein assay; parameters: substrate with concentration 1.01 uM [3H] cAMP + cAMP, incubation time 20 min, incubation temperature 25 C; settings: Compound concentration 10.0 uM
[2] = molecular target: 5-hydroxytryptamine receptor 6 (Homo sapiens) (UniProt P50406); test: Inhibition of Serotonin (5-Hydroxytryptamine) 5-HT6 at 10 µM in the Eurofins-Panlabs radioligand binding assay (Eurofins_assay_272200); settings: Compound concentration 10.0 uM
[3] = molecular target: T1, Cytoplasmic tyrosine-protein kinase BMX (Homo sapiens) (UniProt P51813); test: BMX Kinase screen; settings: Compound concentration 1.0 uM
T1 sequence (whole entry): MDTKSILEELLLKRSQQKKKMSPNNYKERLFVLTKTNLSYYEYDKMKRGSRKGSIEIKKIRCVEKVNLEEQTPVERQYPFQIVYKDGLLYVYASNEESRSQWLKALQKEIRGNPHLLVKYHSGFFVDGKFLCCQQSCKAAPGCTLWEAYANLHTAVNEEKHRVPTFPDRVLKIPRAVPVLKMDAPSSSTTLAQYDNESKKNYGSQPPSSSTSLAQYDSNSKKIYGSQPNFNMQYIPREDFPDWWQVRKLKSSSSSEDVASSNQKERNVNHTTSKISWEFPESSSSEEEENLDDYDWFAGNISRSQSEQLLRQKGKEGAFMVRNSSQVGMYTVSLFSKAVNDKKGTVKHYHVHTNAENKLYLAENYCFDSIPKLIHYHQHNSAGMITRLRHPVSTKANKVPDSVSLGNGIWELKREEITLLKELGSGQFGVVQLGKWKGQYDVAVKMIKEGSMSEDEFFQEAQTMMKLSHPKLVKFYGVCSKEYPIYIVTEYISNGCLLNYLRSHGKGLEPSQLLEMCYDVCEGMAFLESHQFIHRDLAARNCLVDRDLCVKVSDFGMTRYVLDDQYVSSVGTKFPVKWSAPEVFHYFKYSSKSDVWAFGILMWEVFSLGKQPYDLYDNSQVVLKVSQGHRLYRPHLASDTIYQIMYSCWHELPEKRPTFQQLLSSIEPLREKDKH

[4] = molecular target: Cyclin-dependent kinase 5/CDK5 activator 1 (Homo sapiens) (UniProt Q00535+Q15078); test: CDK5/p25 Kinase screen; assay type: protein-complex assay; settings: Compound concentration 1.0 uM
[5] = molecular target: T2, Rhodopsin kinase GRK7 (Homo sapiens) (UniProt Q8WTQ7); test: GRK7 Kinase screen; settings: Compound concentration 1.0 uM
T2 sequence (whole entry): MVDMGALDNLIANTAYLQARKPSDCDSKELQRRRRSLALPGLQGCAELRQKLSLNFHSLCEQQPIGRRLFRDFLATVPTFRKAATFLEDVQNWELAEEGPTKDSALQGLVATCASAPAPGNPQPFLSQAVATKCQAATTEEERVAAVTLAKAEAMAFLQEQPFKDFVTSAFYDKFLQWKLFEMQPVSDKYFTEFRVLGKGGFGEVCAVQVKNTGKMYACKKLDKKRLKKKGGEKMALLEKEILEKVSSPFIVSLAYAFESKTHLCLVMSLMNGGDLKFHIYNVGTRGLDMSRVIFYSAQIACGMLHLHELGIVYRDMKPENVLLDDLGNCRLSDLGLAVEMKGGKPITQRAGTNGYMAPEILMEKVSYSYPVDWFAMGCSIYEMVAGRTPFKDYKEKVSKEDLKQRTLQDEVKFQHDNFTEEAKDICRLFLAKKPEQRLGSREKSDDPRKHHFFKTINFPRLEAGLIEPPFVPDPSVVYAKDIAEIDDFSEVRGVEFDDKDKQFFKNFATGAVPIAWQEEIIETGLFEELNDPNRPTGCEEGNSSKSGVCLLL

[6] = molecular target: T3, Serine/threonine-protein kinase Nek1 (Homo sapiens) (UniProt Q96PY6); test: NEK1 Kinase screen; settings: Compound concentration 1.0 uM
T3 sequence (whole entry): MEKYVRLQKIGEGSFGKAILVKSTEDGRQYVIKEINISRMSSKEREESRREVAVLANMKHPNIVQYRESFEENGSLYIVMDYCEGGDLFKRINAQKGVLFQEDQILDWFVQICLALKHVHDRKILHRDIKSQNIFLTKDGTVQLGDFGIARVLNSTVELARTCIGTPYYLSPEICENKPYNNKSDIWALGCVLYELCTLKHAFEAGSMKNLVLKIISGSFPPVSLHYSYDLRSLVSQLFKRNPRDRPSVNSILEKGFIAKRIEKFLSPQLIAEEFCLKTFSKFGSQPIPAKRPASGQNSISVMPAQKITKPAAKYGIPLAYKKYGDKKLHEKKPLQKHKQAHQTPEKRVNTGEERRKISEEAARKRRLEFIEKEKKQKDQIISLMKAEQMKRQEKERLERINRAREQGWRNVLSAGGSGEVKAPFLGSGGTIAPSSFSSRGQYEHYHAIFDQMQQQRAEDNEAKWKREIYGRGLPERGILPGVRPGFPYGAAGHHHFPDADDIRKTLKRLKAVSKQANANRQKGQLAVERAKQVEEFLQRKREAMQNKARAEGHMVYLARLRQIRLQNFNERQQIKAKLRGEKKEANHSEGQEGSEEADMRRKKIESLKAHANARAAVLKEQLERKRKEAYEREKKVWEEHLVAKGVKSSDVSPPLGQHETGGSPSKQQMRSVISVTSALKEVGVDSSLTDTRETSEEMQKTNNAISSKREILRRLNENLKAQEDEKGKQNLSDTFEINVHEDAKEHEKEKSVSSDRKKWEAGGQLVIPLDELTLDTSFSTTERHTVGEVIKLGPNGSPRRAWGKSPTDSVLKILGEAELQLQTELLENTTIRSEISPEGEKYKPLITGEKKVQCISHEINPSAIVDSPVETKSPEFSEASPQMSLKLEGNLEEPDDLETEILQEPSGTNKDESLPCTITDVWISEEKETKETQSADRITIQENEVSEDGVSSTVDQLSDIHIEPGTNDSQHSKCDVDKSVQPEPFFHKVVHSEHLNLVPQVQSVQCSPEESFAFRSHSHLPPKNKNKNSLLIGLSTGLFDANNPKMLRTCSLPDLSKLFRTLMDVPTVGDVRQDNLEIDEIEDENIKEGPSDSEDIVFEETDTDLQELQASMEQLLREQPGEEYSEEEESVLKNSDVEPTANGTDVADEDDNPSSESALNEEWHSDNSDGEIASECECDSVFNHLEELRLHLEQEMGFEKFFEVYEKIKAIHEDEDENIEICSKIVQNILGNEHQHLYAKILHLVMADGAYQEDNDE

[7] = molecular target: Serine/threonine-protein kinase PLK3 (Homo sapiens) (UniProt Q9H4B4); test: PLK3 Kinase screen; settings: Compound concentration 1.0 uM
[8] = tested on: Proto-oncogene tyrosine-protein kinase receptor Ret (Homo sapiens), P07949 [V804L]; test: RET V804L Kinase screen; settings: Compound concentration 1.0 uM
[9] = molecular target: Mitogen-activated protein kinase kinase kinase 20 (Homo sapiens) (UniProt Q9NYL2); test: ZAK Kinase screen; settings: Compound concentration 1.0 uM
[10] = molecular target: Adrenomedullin receptor AM1; CALCRL/RAMP2 (Homo sapiens) (UniProt O60895+Q16602); test: Adrenomedullin AM1 Eurofins-Panlabs radioligand binding assay; assay type: protein-complex assay; settings: Compound concentration 10.0 uM

Measured: inhibition

Cyclin-dependent kinase 5/CDK5 activator 1 (Homo sapiens), sequence (Q00535 whole entry): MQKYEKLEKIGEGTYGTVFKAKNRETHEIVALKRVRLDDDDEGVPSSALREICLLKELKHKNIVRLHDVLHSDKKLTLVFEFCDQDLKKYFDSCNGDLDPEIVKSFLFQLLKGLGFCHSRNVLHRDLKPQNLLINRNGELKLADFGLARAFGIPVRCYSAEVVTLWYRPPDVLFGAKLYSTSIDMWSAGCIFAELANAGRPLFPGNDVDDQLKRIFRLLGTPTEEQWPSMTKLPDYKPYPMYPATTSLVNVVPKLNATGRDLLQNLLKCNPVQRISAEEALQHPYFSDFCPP
Cyclin-dependent kinase 5/CDK5 activator 1 (Homo sapiens), sequence (Q15078 99-307 partner limits assumed): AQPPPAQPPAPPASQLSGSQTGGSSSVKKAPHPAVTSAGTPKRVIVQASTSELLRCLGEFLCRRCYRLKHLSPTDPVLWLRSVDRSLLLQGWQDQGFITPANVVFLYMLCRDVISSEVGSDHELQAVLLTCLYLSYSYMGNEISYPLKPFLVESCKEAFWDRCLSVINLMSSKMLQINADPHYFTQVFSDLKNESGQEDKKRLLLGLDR
5-hydroxytryptamine receptor 6 (Homo sapiens), sequence (P50406 whole entry): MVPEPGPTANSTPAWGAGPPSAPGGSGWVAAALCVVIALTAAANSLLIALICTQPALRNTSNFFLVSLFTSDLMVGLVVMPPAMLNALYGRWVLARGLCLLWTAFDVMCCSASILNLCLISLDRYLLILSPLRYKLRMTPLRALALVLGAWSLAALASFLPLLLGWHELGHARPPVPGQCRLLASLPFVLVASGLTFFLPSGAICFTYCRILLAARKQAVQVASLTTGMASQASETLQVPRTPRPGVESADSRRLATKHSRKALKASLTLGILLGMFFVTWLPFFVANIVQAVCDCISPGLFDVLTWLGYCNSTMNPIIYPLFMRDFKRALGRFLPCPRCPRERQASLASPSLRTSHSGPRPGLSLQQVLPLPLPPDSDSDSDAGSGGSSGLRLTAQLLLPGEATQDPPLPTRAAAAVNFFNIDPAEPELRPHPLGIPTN
Serine/threonine-protein kinase PLK3 (Homo sapiens), sequence (Q9H4B4 whole entry, looked up): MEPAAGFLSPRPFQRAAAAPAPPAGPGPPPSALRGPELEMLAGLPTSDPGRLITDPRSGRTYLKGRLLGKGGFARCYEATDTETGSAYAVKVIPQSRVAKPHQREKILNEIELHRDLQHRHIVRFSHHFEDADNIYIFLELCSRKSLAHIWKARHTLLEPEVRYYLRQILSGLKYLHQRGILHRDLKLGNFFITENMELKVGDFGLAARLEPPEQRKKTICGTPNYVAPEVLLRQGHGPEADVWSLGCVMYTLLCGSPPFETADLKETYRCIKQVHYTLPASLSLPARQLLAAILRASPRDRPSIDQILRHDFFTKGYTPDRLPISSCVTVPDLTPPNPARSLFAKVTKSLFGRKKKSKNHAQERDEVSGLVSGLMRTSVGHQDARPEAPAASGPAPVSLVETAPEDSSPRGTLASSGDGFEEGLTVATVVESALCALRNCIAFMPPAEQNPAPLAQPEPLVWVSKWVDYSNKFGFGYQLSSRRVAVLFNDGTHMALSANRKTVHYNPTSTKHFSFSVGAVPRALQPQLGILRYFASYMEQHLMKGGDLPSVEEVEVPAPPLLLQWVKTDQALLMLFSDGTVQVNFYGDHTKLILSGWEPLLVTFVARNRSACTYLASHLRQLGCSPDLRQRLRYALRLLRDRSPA
Proto-oncogene tyrosine-protein kinase receptor Ret (Homo sapiens), P07949 [V804L], sequence (P07949 whole entry V804L): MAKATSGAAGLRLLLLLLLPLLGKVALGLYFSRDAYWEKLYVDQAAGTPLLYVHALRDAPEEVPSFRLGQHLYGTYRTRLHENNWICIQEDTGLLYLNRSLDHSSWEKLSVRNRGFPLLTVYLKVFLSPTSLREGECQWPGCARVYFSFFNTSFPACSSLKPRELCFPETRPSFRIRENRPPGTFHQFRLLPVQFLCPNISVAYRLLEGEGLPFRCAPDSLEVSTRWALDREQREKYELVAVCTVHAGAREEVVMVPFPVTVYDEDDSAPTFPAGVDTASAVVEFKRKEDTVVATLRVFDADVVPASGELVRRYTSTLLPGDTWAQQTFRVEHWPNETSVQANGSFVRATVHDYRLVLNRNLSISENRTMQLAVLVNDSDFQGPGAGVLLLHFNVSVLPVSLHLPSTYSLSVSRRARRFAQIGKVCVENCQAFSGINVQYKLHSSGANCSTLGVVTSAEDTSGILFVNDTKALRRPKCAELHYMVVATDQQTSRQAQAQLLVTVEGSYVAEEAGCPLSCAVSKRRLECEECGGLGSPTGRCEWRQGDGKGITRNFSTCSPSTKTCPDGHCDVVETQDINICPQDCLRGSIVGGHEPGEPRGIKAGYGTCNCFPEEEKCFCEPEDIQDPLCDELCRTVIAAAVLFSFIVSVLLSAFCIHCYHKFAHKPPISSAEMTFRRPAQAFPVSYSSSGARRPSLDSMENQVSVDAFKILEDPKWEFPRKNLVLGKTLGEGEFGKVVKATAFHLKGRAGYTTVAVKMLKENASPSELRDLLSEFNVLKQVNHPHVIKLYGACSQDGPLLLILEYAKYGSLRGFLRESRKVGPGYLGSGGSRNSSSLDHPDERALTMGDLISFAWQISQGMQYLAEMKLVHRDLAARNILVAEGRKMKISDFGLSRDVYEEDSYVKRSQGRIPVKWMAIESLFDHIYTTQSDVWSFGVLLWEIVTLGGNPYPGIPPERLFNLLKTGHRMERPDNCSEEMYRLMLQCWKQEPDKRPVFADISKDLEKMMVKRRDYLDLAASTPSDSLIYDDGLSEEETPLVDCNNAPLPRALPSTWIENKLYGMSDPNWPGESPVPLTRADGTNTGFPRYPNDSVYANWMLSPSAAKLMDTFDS
Mitogen-activated protein kinase kinase kinase 20 (Homo sapiens), sequence (Q9NYL2 2-800 limits assumed): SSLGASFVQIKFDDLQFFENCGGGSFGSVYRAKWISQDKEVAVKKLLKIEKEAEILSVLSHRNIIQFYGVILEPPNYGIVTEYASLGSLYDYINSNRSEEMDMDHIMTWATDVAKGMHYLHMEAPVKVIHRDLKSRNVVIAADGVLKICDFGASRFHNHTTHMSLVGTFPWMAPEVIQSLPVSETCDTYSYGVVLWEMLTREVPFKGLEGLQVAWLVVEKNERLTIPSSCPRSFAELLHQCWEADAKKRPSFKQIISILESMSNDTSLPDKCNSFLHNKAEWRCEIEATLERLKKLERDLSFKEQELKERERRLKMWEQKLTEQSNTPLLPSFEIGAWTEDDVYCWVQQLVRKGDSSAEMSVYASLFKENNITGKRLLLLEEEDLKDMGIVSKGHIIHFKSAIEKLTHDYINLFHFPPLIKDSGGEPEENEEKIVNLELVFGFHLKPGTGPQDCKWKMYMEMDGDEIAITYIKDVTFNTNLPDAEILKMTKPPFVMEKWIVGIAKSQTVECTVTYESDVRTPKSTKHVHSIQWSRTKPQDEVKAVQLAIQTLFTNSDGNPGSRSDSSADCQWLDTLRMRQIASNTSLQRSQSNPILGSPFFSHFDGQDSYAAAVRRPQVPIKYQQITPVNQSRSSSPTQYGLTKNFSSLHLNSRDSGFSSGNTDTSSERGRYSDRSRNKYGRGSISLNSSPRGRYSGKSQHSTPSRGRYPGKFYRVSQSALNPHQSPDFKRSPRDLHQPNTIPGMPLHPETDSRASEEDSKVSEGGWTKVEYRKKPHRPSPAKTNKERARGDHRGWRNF

C[C@@H]1CN(c2cc(-c3n[nH]c4ccc(OC5(C)CC5)cc34)ncn2)C[C@H](C)O1 [MLi-2]
inactive: [1] 21% | [2] 3% | [3] 14% | [4] -2.71% | [5] 4.4% | [6] 3.48% | [7] 4.9% | [8] 5.69% | [9] 4.32% | [10] -8%
